# Results published in patent US10815254B2, “Biflavone-zinc complex, preparation method and application thereof” (NANJING FORESTRY UNIVERSITY, priority 2017, dated 2020).
# Columns and labels:
# [1] = test system: herring sperm DNA (fDNA); assay: Interaction with fDNA by UV-vis spectroscopy, fluorescence spectroscopy and viscosity method; format: binding; conditions: UV-vis, fluorescence (fDNA-EB system), viscosity
# Source text: UV-vis spectroscopy, fluorescence spectroscopy and viscosity method are used to study the interaction between the Ame/Ame-Zn complex and herring sperm DNA (fDNA) to further reveal the mechanism of antitumor activity, the obtained spectra are shown in FIGS. 7-11. […] Thereby, it can be speculated that the mechanism of antitumor activity of the Ame and its complex may be that Ame or the complex thereof enters the interior of the cell and intercalates with the DNA strand to cause apoptosis. Since the interaction of the complex with DNA is stronger than of the Ame, the antitumor activity thereof is also stronger than of the Ame.
# [2] = Pyrogallol auto-oxidation method, O2-. free radical scavenging; conditions: Tris-HCl pH 8.20, 25° C., 322 nm, read-out: IC50 to scavenge O2^−. free radical
# Protocol: The free radical scavenging effects of the Ame and the Ame-Zn complex were studied by pyrogallol auto-oxidation method and ABTS method with the following steps:
# (1) Pyrogallol Auto-Oxidation Method
# Determination of auto-oxidation rate V0 of pyrogallol: 2 mL Tris-HCl buffer (pH=8.20) was added to a 10 mL sample tube at 25° C., 100 μL DMSO was added as a control, after adding 0.8 mL distilled water, 0.2 mL pyrogallol solution having a concentration of 2 mmol·L^−1 was added, the mixture was poured into a cuvette after mixing uniformly, the absorbance at 322 nm was measured with pure water as a blank, the A value was recorded every 10 s for a total of 4 min, linear regression was performed with t as the abscissa, and A as the ordinate, straight line slope thereof is V0, and the measurement was performed for three times to obtain an average value. […]
# [3] = ABTS method, ABTS+. free radical scavenging; conditions: 25° C., 5 min, 730 nm, from linear equation of scavenging rate vs concentration; read-out: IC50 for scavenging ABTS^+. free radicals
# Protocol: Determination of […]. free radical ion scavenging capacity of the blank sample: at 25° C., 2.9 mL ABTS^+. free radical ion working solution was added into a 10 mL sample tube, 100 μL DMSO was added, after reacting for 5 min, the UV-vis spectrum was measured, and the absorption intensity A0 at 730 nm was recorded.
# Determination of ABTS^+. free radical ion scavenging capacity of the samples: at 25° C., 2.9 mL ABTS^+. free radical ion working solution was added into a 10 mL sample tube, 100 μL samples of different concentrations that were dissolved in DMSO were added, after reacting for 5 min, the UV-vis spectrum was measured, and the absorption intensity A1 at 730 nm was recorded, and the ABTS^+. free radical ion scavenging rate was calculated according to Formula 4.
# The ABTS^+. free radical scavenging capacities of the Ame and the Ame-Zn complex are concentration dependent. Within a certain range, the scavenging rate is linear with the concentration. The curve of the scavenging rate and the concentration (c) is plotted in the present invention to obtain a corresponding linear equation, and the maximum half-inhibitory concentration (IC50 value) is calculated.
compound,measurement,setting,value
"O=c1cc(-c2ccc(O)c(-c3c(O)cc(O)c4c(=O)cc(-c5ccc(O)cc5)oc34)c2)oc2cc(O)cc(O)c12 [Ame, amentoflavone]",manner of interaction with fDNA,[1],intercalation manner
same,IC50,[2],23.3 µM
same,IC50,[3],20.7 µM
